Patent US12441754B2, “Galactoside inhibitor of galectins” (GALECTO BIOTECH AB, priority 2019, dated 2025)
Where two headings read alike, the source gives them in different places.

Tests used:
Galectin-1 = Galectin-1 (Homo sapiens, UniProt P09382); assay: fluorescence anisotropy assay, compound as inhibitor of galectin / fluorescein tagged saccharide probe interaction; assay type: binding
Text: (§1) Anal. Biochem. 334: 36-47, (Sörme et al., 2004) and Monovalent interactions of Galectin-1 By Salomonsson, Emma; Larumbe, Amaia; Tejler, Johan; Tullberg, Erik; Rydberg, Hanna; Sundin, Anders; Khabut, Areej; Frejd, Torbjorn; Lobsanov, Yuri D.; Rini, James M.; et al, From Biochemistry (2010), 49(44), 9518-9532, (Salomonsson et al., 2010).

Galectin-3 = Galectin-3 (Homo sapiens, UniProt P17931); assay: as above; assay type: binding
Sequence of Galectin-3 (P17931 whole entry): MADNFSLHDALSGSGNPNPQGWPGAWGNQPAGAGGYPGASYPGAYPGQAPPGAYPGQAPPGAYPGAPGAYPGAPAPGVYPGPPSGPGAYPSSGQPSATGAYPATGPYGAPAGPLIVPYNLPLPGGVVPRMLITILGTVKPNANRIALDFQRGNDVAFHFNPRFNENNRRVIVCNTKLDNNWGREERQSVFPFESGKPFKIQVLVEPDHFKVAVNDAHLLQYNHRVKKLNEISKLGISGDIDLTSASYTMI
Text: as §1

Sequence of Galectin-1 (P09382 whole entry): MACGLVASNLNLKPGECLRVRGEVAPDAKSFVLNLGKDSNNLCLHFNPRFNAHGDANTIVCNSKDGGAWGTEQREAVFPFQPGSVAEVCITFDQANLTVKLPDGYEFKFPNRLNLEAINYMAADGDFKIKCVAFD

Row | SMILES | Kd (Galectin-1) [nM] | Kd (Galectin-3) [nM] | Kd (Galectin-1; read-out: Galectin-1 Kd) [nM]
1 | CCO[C@@H]1[C@@H](n2cc(-c3csc(N)n3)nn2)[C@@H](O)[C@@H](CO)O[C@@H]1Sc1cc(Cl)cnc1C [Example 20, 5-Chloro-2-methylpyridin-3-yl 3-[4-(2-aminothiazol-4-yl)-1H-1,2,3-triazol-1-yl]-3-deoxy-2-O-ethyl-1-thio-α-D-galactopyranoside] | 67 | 6200 | –
2 | CO[C@@H]1[C@@H](n2cc(-c3nc(Cl)cs3)nn2)[C@@H](O)[C@@H](CO)O[C@@H]1Sc1cc(Cl)cnc1C#N [Example 13, 5-Chloro-2-cyanopyridin-3-yl 3-[4-(4-chlorothiazol-2-yl)-1H-1,2,3-triazol-1-yl]-3-deoxy-2-O-methyl-1-thio-α-D-galactopyranoside] | 25 | 160 | –
3 | CO[C@@H]1[C@@H](n2cc(-c3nc(Cl)cs3)nn2)[C@@H](O)[C@@H](CO)O[C@@H]1Sc1cnc(C#N)c(Br)c1 [Example 12, 3-Bromo-2-cyanopyridin-5-yl 3-[4-(4-chlorothiazol-2-yl)-1H-1,2,3-triazol-1-yl]-3-deoxy-2-O-methyl-1-thio-α-D-galactopyranoside] | 24 | 270 | –
4 | CO[C@@H]1[C@@H](n2cc(-c3csc(O)n3)nn2)[C@@H](O)[C@@H](CO)O[C@@H]1Sc1ccc(Cl)c(Cl)c1 [Example 9, 3,4-Dichlorophenyl 3-deoxy-3-[4-(2-hydroxythiazol-4-yl)-1H-1,2,3-triazol-1-yl]-2-O-methyl-1-thio-α-D-galactopyranoside] | – | 4600 | 41
5 | COC1C(n2cc(-c3csc(N)n3)nn2)[C@@H](O)C(CO)O[C@@H]1Sc1ccc(Cl)c(Cl)c1 (stereo partly drawn) [Example 28, 3,4-Dichlorphenyl 3-[4-(2-aminothiazol-4-yl)-1H-1,2,3-triazol-1-yl]-3-deoxy-2-O-methyl-1-thio-α-D-galactopyranoside] | – | 2400 | 63
6 | CO[C@@H]1[C@@H](n2cc(-c3csc(N)n3)nn2)[C@@H](O)[C@@H](CO)O[C@@H]1Sc1cc(Cl)cnc1-c1ccccn1 [Example 26, 5-Chloro-2-(pyridin-2-yl)pyridin-3-yl 3-[4-(2-aminothiazol-4-yl)-1H-1,2,3-triazol-1-yl]-3-deoxy-2-O-methyl-1-thio-α-D-galactopyranoside] | 17 | 1700 | –
7 | CO[C@@H]1[C@@H](n2cc(-c3nccs3)nn2)[C@@H](O)[C@@H](CO)O[C@@H]1Sc1cncc(Br)c1 [Example 2, 5-Bromopyridin-3-yl 3-deoxy-2-O-methyl-3-[4-(2-thiazolyl)-1H-1,2,3-triazol-1-yl]-1-thio-α-D-galactopyranoside] | 230 | 3000 | –
8 | N#Cc1ncc(Cl)cc1S[C@H]1O[C@H](CO)[C@H](O)[C@H](n2cc(-c3nccs3)nn2)[C@H]1OCc1ccccc1 [Example 5, 5-Chloro-2-cyanopyridin-3-yl 2-O-benzyl-3-deoxy-3-[4-(2-thiazolyl)-1H-1,2,3-triazol-1-yl]-1-thio-α-D-galactopyranoside] | 190 | 1800 | –
9 | CO[C@@H]1[C@@H](n2cc(-c3nc(C)cs3)nn2)[C@@H](O)[C@@H](CO)O[C@@H]1Sc1cc(C)cnc1C#N [Example 35, 2-Cyano-5-methylpyridin-3-yl 3-deoxy-3-[4-(4-methylthiazol-2-yl)-1H-1,2,3-triazol-1-yl]-2-O-methyl-1-thio-α-D-galactopyranoside] | 490 | 9000 | –
10 | CCOC1C(n2cc(-c3csc(N)n3)nn2)[C@@H](O)C(CO)O[C@@H]1Sc1ccc(C#N)c(Cl)c1 (stereo partly shown) [Example 88] | 130 | 7700 | –
11 | CO[C@@H]1[C@@H](n2cc(-c3csc(N)n3)nn2)[C@@H](O)[C@@H](CO)O[C@@H]1Sc1ccc(C(F)(F)F)c(Cl)c1 [Example 30, 3-Chloro-4-(trifluoromethyl)phenyl 3-[4-(2-aminothiazol-4-yl)-1H-1,2,3-triazol-1-yl]-3-deoxy-2-O-methyl-1-thio-α-D-galactopyranoside] | 120 | 2500 | –
12 | CO[C@@H]1[C@@H](n2cc(-c3csc(N)n3)nn2)[C@@H](O)[C@@H](CO)O[C@@H]1Sc1cc(Cl)cnc1-c1ccncc1 [Example 22, 5-Chloro-2-(pyridin-4-yl)pyridin-3-yl 3-[4-(2-aminothiazol-4-yl)-1H-1,2,3-triazol-1-yl]-3-deoxy-2-O-methyl-1-thio-α-D-galactopyranoside] | 26 | 4100 | –

Now from value to molecule, other results behind:

Row | Kd (Galectin-1) [nM] | Kd (Galectin-3) [nM] | SMILES | Kd (Galectin-1; read-out: Galectin-1 Kd) [nM]
13 | 150 | 28 | CO[C@@H]1[C@@H](n2cc(-c3nc(Cl)c(Cl)s3)nn2)[C@@H](O)[C@@H](CO)O[C@@H]1Sc1cc(Br)cnc1C#N [Example 55, 5-Bromo-2-cyanopyridin-3-yl 3-[4-(4,5-dichlorothiazol-2-yl)-1H-1,2,3-triazol-1-yl]-3-deoxy-2-O-methyl-1-thio-α-D-galactopyranoside] | –
14 | 110 | 400 | CO[C@@H]1[C@@H](n2cc(-c3nc(Cl)cs3)nn2)[C@@H](O)[C@@H](CO)O[C@@H]1Sc1cnc2ncsc2c1 [Example 101, Thiazolo[4,5-b]pyridin-6-yl 3-[4-(4-chlorothiazol-2-yl)-1H-1,2,3-triazol-1-yl]-3-deoxy-2-O-methyl-1-thio-α-D-galactopyranoside] | –
15 | 110 | 230 | N#Cc1ccc(Cl)cc1S[C@H]1O[C@H](CO)[C@H](O)[C@H](n2cc(-c3nc(Cl)cs3)nn2)[C@H]1O [Example 50, 5-Chloro-2-cyanophenyl 3-[4-(4-chlorothiazol-2-yl)-1H-1,2,3-triazol-1-yl]-3-deoxy-1-thio-α-D-galactopyranoside] | –
16 | 54 | 2900 | CO[C@@H]1[C@@H](n2cc(-c3nc(C)cs3)nn2)[C@@H](O)[C@@H](CO)O[C@@H]1Sc1cc(Br)ccc1C#N [Example 63, 5-Bromo-2-cyanophenyl 3-deoxy-3-[4-(4-methylthiazol-2-yl)-1H-1,2,3-triazol-1-yl]-2-O-methyl-1-thio-α-D-galactopyranoside] | –
17 | 520 | 7200 | Nc1nc(-c2cn([C@H]3[C@@H](O)[C@@H](CO)O[C@H](Sc4ccc(Cl)c(Cl)c4)[C@@H]3OCC(F)(F)F)nn2)cs1 [Example 78, 3,4-Dichlorophenyl 3-[4-(2-aminothiazol-4-yl)-1H-1,2,3-triazol-1-yl]-3-deoxy-2-O-(2,2,2-trifluoroethyl)-1-thio-α-D-galactopyranoside] | –
18 | 100 | 6100 | COC1C(n2cc(-c3csc(N)n3)nn2)[C@@H](O)C(CO)O[C@@H]1Sc1cc(Cl)cnc1N1CC2(COC2)C1 (stereo partly drawn) [Example 38, 5-Chloro-2-{N-(2-oxa)-6-azaspiro[3.3]heptanyl}-pyridin-3-yl 3-[4-(2-aminothiazol-4-yl)-1H-1,2,3-triazol-1-yl]-3-deoxy-2-O-methyl-1-thio-α-D-galactopyranoside] | –
19 | 110 | 5500 | CCO[C@@H]1[C@@H](n2cc(-c3csc(N)n3)nn2)[C@@H](O)[C@@H](CO)O[C@@H]1Sc1ccc(Cl)c(Cl)c1 [Example 87, 3,4-Dichlorophenyl 3-[4-(2-aminothiazol-4-yl)-1H-1,2,3-triazol-1-yl]-3-deoxy-2-O-ethyl-1-thio-α-D-galactopyranoside] | –
20 | 78 | 3100 | CNC(=O)c1ccc(Cl)cc1S[C@H]1OC(CO)[C@H](O)C(n2cc(-c3nccs3)nn2)C1OC (stereo partly drawn) [Example 62, 5-Chloro-2-(N-methyl-carbonyl)phenyl 3-deoxy-2-O-methyl-3-[4-(2-thiazolyl)-1H-1,2,3-triazol-1-yl]-1-thio-α-D-galactopyranoside] | –
21 | 24 | 51 | C#Cc1cnc(C(=O)N(C)C)c(S[C@H]2O[C@H](CO)[C@H](O)[C@H](n3cc(-c4nc(Cl)cs4)nn3)[C@H]2OC)c1 [Example 91, 5-Ethynyl-2-(N,N-dimethylcarbamoyl)pyridin-3-yl 3-[4-(4-chlorothiazol-2-yl)-1H-1,2,3-triazol-1-yl]-3-deoxy-2-O-methyl-1-thio-α-D-galactopyranoside] | –
22 | 170 | 520 | CO[C@@H]1[C@@H](n2cc(-c3nc(Cl)cs3)nn2)[C@@H](O)[C@@H](CO)O[C@@H]1Sc1cncc(C#N)c1 [Example 82, 5-Cyanopyridin-3-yl 3-[4-(4-chlorothiazol-2-yl)-1H-1,2,3-triazol-1-yl]-3-deoxy-2-O-methyl-1-thio-α-D-galactopyranoside] | –
23 | 22 | 2000 | CO[C@@H]1[C@@H](n2cc(-c3csc(O)n3)nn2)[C@@H](O)[C@@H](CO)O[C@@H]1Sc1cc(Br)ccc1C#N [Example 58, 5-Bromo-2-cyanophenyl 3-deoxy-3-[4-(2-hydroxythiazol-4-yl)-1H-1,2,3-triazol-1-yl]-2-O-methyl-1-thio-α-D-galactopyranoside] | –
24 | 330 | 420 | N#Cc1ncc(Cl)cc1S[C@H]1O[C@H](CO)[C@H](O)[C@H](n2cc(-c3csc(Cl)n3)nn2)[C@H]1O [Example 70, 5-Chloro-2-cyanopyridin-3-yl 3-[4-(2-chlorothiazol-4-yl)-1H-1,2,3-triazol-1-yl]-3-deoxy-1-thio-α-D-galactopyranoside] | –
25 | 10 | 150 | CO[C@@H]1[C@@H](n2cc(-c3nc(Cl)cs3)nn2)[C@@H](O)[C@@H](CO)O[C@@H]1Sc1cc(Cl)cnc1-c1ccccn1 [Example 76, 5-Chloro-2-(pyridin-2-yl)-pyridin-3-yl 3-[4-(4-chlorothiazol-2-yl)-1H-1,2,3-triazol-1-yl]-3-deoxy-2-O-methyl-1-thio-α-D-galactopyranoside] | –
26 | 150 | 5700 | CO[C@@H]1[C@@H](n2cc(-c3csc(O)n3)nn2)[C@@H](O)[C@@H](CO)O[C@@H]1Sc1cncc(C#N)c1 [Example 83, 5-Cyanopyridin-3-yl 3-deoxy-3-[4-(2-hydroxythiazol-4-yl)-1H-1,2,3-triazol-1-yl]-2-O-methyl-1-thio-α-D-galactopyranoside] | –
